# Measurements: patent US20180071354A1, “SELECTIVE BREEDING METHOD OF ANTITUMOR/ANTICANCER CAMELLIA SINENSIS STRAIN, AND TEA PRODUCT OF SUCH STRAIN” (FUJIAN AGRICULTURE AND FORESTRY UNIVERSITY, priority 2015, published 2018)
# Where two headings read alike, the source gives them in different places.
# Legend:
# Assay type in all cases: cell-based
# [1] = test system: human colon cancer cell line HCT-116; test: In vitro antitumor/anticancer testing (CCK-8), HCT-116; details: 48 h
# Protocol: (§1) Each of Tea Product 1 and Conventional Tea Product obtained in section A of this example was used to prepare test tea samples according to the method described below. A proper amount of the respective tea product was added into sterile water to prepare a stock solution with a concentration of 100 mg/mL, followed by using a membrane filter with a pore size of 0.22 μm to conduct vacuum filtration and sterilization. The resulting stock solution was diluted with a respective complete medium shown in Table 3 below to form test tea samples with different concentrations. In other words, the thus obtained test tea samples to be used for treating a respective cancer/tumor cell line shown in Table 3 were prepared using the same complete medium as that for the respective cancer/tumor cell line. […] Specifically, each of the aforesaid commercially available agents was subjected to the method described below to prepare comparative test samples. A proper amount of a respective commercially available agent was dissolved in phosphate-buffered saline (PBS) to prepare a stock solution with a concentration of 5 mg/mL, followed by using a membrane filter with a pore size of 0.22 μm to conduct vacuum filtration and sterilization. The resulting stock solution was diluted with a respective complete medium shown in Table 3 below to form comparative test samples with different concentrations. To be specific, the comparative test samples prepared from the respective commercially available agent have the concentrations shown in Table 2 below. The thus obtained comparative test samples to be used for treating a respective cancer/tumor cell line shown in Table 3 were prepared using the same complete medium as that for the respective cancer/tumor cell line. […] The cultivation of each cancer/tumor cell line is described as follows. […] Afterwards, a cell suspension having a cell density of 1.0×10^4 cells/mL was prepared. […] As experimental groups, the tumor/cancer cells of each cell line were treated with the test tea samples prepared from one or more of the tea products and the comparative test samples prepared from one or more of the commercially available agents as obtained in section B of this example (for more detailed information about the tea product(s) and the commercially available product (s) used to treat each cell line, please see Table 4 below). To be specific, 6 to 10 test tea samples prepared from the same tea product and having different concentrations, as well as 6 to 10 comparative test samples prepared from the same commercially available agent and having different concentrations, were utilized to treat the tumor/cancer cells of each cell line. For each experimental group, 6 repetitions of tumor/cancer treatment were performed. For the control group, 100 μL of PBS was added to a well containing the medium and the cancer/tumor cells of the respective cell line. For the blank group, 100 μL of PBS was added to a well containing a complete medium the same as that used for cultivation of the cancer/tumor cells of the respective cell line. After the treatment described above, cultivation was conducted in an incubator (37° C., 100% relative humidity, 5% CO2) for 48 hours. Subsequently, the liquid containing the medium and the sample in the well was removed, and a respective complete medium (shown in Table 3 above) containing 10% CCK-8 (Cell Counting Kit-8)(Dojindo Molecular Technologies, Inc., Cat. No. CK04-13) was added. Cultivation was performed in an incubator (37° C.) for 2 to 4 hours, followed by gently shaking.
# [2] = test system: human squamous cell carcinoma cell line A431; test: In vitro antitumor/anticancer testing (CCK-8), A431; details: 48 h; for IC50: A431
# Protocol: as §1
# [3] = test system: human gastric cancer cell line SMMC-7721; test: In vitro antitumor/anticancer testing (CCK-8), SMMC-7721; details: 48 h
# Protocol: as §1
# [4] = test system: human gastric cancer cell line BGC-823; test: In vitro antitumor/anticancer testing (CCK-8), BGC-823; details: 48 h
# Protocol: as §1
# [5] = test system: human mammary gland/duct cancer cell line BT-474; test: In vitro antitumor/anticancer testing (CCK-8), BT-474; details: 48 h
# Protocol: as §1
compound,measurement,setting,value
O=c1[nH]cc(F)c(=O)[nH]1 [5-fluorouracil],inhibition at 0.3125 µg/mL,"[1]; Homo sapiens, HCT-116, 0.3125 μg/mL, read-out: Percent growth inhibition",70.1%
same,inhibition at 0.625 µg/mL,"[1]; Homo sapiens, HCT-116, 0.625 μg/mL, read-out: Percent growth inhibition",32.4%
same,inhibition at 1.25 µg/mL,"[1]; Homo sapiens, HCT-116, 1.25 μg/mL, read-out: Percent growth inhibition",36.4%
same,inhibition at 2.5 µg/mL,"[1]; Homo sapiens, HCT-116, 2.5 μg/mL, read-out: Percent growth inhibition",88.5%
same,inhibition at 5 µg/mL,"[1]; Homo sapiens, HCT-116, 5 μg/mL, read-out: Percent growth inhibition",89.9%
same,inhibition at 10 µg/mL,"[1]; Homo sapiens, HCT-116, 10 μg/mL, read-out: Percent growth inhibition",91.9%
same,inhibition at 20 µg/mL,"[1]; Homo sapiens, HCT-116, 20 μg/mL, read-out: Percent growth inhibition",95.8%
same,inhibition at 40 µg/mL,"[1]; Homo sapiens, HCT-116, 40 μg/mL, read-out: Percent growth inhibition",97.9%
same,inhibition at 80 µg/mL,"[1]; Homo sapiens, HCT-116, 80 μg/mL, read-out: Percent growth inhibition",99.5%
same,IC50,"[1]; Homo sapiens, HCT-116, read-out: IC50",0.0493 µg/mL
same,inhibition at 0.3125 µg/mL,"[2]; Homo sapiens, A-431, 0.3125 μg/mL, read-out: Percent growth inhibition",82.4%
same,inhibition at 0.625 µg/mL,"[2]; Homo sapiens, A-431, 0.625 μg/mL, read-out: Percent growth inhibition",83.5%
same,inhibition at 1.25 µg/mL,"[2]; Homo sapiens, A-431, 1.25 μg/mL, read-out: Percent growth inhibition",83.1%
same,inhibition at 2.5 µg/mL,"[2]; Homo sapiens, A-431, 2.5 μg/mL, read-out: Percent growth inhibition",83%
same,inhibition at 5 µg/mL,"[2]; Homo sapiens, A-431, 5 μg/mL, read-out: Percent growth inhibition",84.4%
same,inhibition at 10 µg/mL,"[2]; Homo sapiens, A-431, 10 μg/mL, read-out: Percent growth inhibition",33.7%
same,inhibition at 20 µg/mL,"[2]; Homo sapiens, A-431, 20 μg/mL, read-out: Percent growth inhibition",96.3%
same,inhibition at 40 µg/mL,"[2]; Homo sapiens, A-431, 40 μg/mL, read-out: Percent growth inhibition",98.2%
same,inhibition at 80 µg/mL,"[2]; Homo sapiens, A-431, 80 μg/mL, read-out: Percent growth inhibition",98.8%
same,IC50,"[2]; Homo sapiens, A-431, read-out: IC50",0.272 µg/mL
same,inhibition at 0.3125 µg/mL,"[3]; Homo sapiens, SMMC-7721, 0.3125 μg/mL, read-out: Percent growth inhibition",28.6%
same,inhibition at 0.625 µg/mL,"[3]; Homo sapiens, SMMC-7721, 0.625 μg/mL, read-out: Percent growth inhibition",62.4%
same,inhibition at 1.25 µg/mL,"[3]; Homo sapiens, SMMC-7721, 1.25 μg/mL, read-out: Percent growth inhibition",81%
same,inhibition at 2.5 µg/mL,"[3]; Homo sapiens, SMMC-7721, 2.5 μg/mL, read-out: Percent growth inhibition",82.7%
same,inhibition at 5 µg/mL,"[3]; Homo sapiens, SMMC-7721, 5 μg/mL, read-out: Percent growth inhibition",84.3%
same,inhibition at 10 µg/mL,"[3]; Homo sapiens, SMMC-7721, 10 μg/mL, read-out: Percent growth inhibition",81.6%
same,inhibition at 20 µg/mL,"[3]; Homo sapiens, SMMC-7721, 20 μg/mL, read-out: Percent growth inhibition",79.1%
same,inhibition at 40 µg/mL,"[3]; Homo sapiens, SMMC-7721, 40 μg/mL, read-out: Percent growth inhibition",80.2%
same,inhibition at 80 µg/mL,"[3]; Homo sapiens, SMMC-7721, 80 μg/mL, read-out: Percent growth inhibition",91%
same,IC50,"[3]; Homo sapiens, SMMC-7721",0.383 µg/mL
same,inhibition at 0.3125 µg/mL,"[4]; Homo sapiens, BGC-823, 0.3125 μg/mL, read-out: Percent growth inhibition",-5.82%
same,inhibition at 0.625 µg/mL,"[4]; Homo sapiens, BGC-823, 0.625 μg/mL, read-out: Percent growth inhibition",-4.99%
same,inhibition at 1.25 µg/mL,"[4]; Homo sapiens, BGC-823, 1.25 μg/mL, read-out: Percent growth inhibition",-1.41%
same,inhibition at 2.5 µg/mL,"[4]; Homo sapiens, BGC-823, 2.5 μg/mL, read-out: Percent growth inhibition",0.92%
same,inhibition at 5 µg/mL,"[4]; Homo sapiens, BGC-823, 5 μg/mL, read-out: Percent growth inhibition",11.6%
same,inhibition at 10 µg/mL,"[4]; Homo sapiens, BGC-823, 10 μg/mL, read-out: Percent growth inhibition",23.9%
same,inhibition at 20 µg/mL,"[4]; Homo sapiens, BGC-823, 20 μg/mL, read-out: Percent growth inhibition",40.9%
same,inhibition at 40 µg/mL,"[4]; Homo sapiens, BGC-823, 40 μg/mL, read-out: Percent growth inhibition",52.7%
same,inhibition at 80 µg/mL,"[4]; Homo sapiens, BGC-823, 80 μg/mL, read-out: Percent growth inhibition",62.8%
same,IC50,"[4]; Homo sapiens, BGC-823, read-out: IC50",2.55 µg/mL
"O=C(O[C@@H]1Cc2c(O)cc(O)cc2O[C@@H]1c1cc(O)c(O)c(O)c1)c1cc(O)c(O)c(O)c1 [EGCG monomer, epigallocatechin gallate]",Percent growth inhibition,[1]; 2.5 μg/mL,10.74%
same,Percent growth inhibition,[1]; 5 μg/mL,−7.91%
same,Percent growth inhibition,[1]; 10 μg/mL,−4.12%
same,Percent growth inhibition,[1]; 20 μg/mL,−1.58%
same,Percent growth inhibition,[1]; 40 μg/mL,34.52%
same,Percent growth inhibition,[1]; 80 μg/mL,66.98%
same,IC50,[1]; HCT-116,IC50 (μg/mL) = 55.72
same,Percent growth inhibition,[2]; 0.3125 μg/mL,7.79%
same,Percent growth inhibition,[2]; 0.625 μg/mL,13.31%
same,Percent growth inhibition,[2]; 1.25 μg/mL,10.00%
same,Percent growth inhibition,[2]; 2.5 μg/mL,12.70%
same,Percent growth inhibition,[2]; 5 μg/mL,19.18%
same,Percent growth inhibition,[2]; 10 μg/mL,24.03%
same,Percent growth inhibition,[2]; 20 μg/mL,34.07%
same,Percent growth inhibition,[2]; 40 μg/mL,55.14%
same,Percent growth inhibition,[2]; 80 μg/mL,30.13%
same,IC50,[2],IC50 (μg/mL) = 29.51
same,Percent growth inhibition,[3]; 2.5 μg/mL,4.93%
same,Percent growth inhibition,[3]; 5 μg/mL,3.31%
same,Percent growth inhibition,[3]; 10 μg/mL,3.45%
same,Percent growth inhibition,[3]; 20 μg/mL,1.33%
same,Percent growth inhibition,[3]; 40 μg/mL,6.33%
same,Percent growth inhibition,[3]; 80 μg/mL,40.85%
same,Percent growth inhibition,[3]; 160 μg/mL,92.58%
same,Percent growth inhibition,[3]; 320 μg/mL,98.50%
same,Percent growth inhibition,[3]; 640 μg/mL,97.44%
same,Percent growth inhibition,[4]; 2.5 μg/mL,−0.82%
same,Percent growth inhibition,[4]; 5 μg/mL,−1.06%
same,Percent growth inhibition,[4]; 10 μg/mL,−0.64%
same,Percent growth inhibition,[4]; 20 μg/mL,6.47%
same,Percent growth inhibition,[4]; 40 μg/mL,28.02%
same,Percent growth inhibition,[4]; 80 μg/mL,60.53%
same,Percent growth inhibition,[4]; 160 μg/mL,97.87%
same,Percent growth inhibition,[4]; 320 μg/mL,98.16%
same,Percent growth inhibition,[4]; 640 μg/mL,97.03%
same,IC50,[4]; BGC-823,IC50 (μg/mL) = 62.94
same,Percent growth inhibition,[5]; 2.5 μg/mL,6.51%
same,Percent growth inhibition,[5]; 5 μg/mL,2.62%
same,Percent growth inhibition,[5]; 10 μg/mL,−2.75%
same,Percent growth inhibition,[5]; 20 μg/mL,−6.45%
same,Percent growth inhibition,[5]; 40 μg/mL,−20.61%
same,Percent growth inhibition,[5]; 80 μg/mL,57.40%
same,Percent growth inhibition,[5]; 160 μg/mL,96.45%
same,Percent growth inhibition,[5]; 320 μg/mL,97.46%
same,Percent growth inhibition,[5]; 640 μg/mL,97.03%
same,IC50,[5]; BT-474,IC50 (μg/mL) = 74.75
